{"source": "paper PMC9629815", "about": "“MK256 is a novel CDK8 inhibitor with potent antitumor activity in AML through downregulation of the STAT pathway” (Oncotarget, 2022)", "key": {"CDK1/cyclin B": {"target": "CDK1/cyclin B (Homo sapiens, UniProt P06493)", "assay": "CDK panel kinase inhibition", "assay_type": "biochemical", "conditions": "read-out: Percentage of inhibition (%)", "text": "(§1) MK256 was synthesized in house. The kinase profiling of MK256 against various targets was done using the SelectScreen Kinase Profiling Services provided by ThermoFisher Scientific (Walham WA, USA). https://www.thermofisher.com/us/en/home/products-and-services/services/custom-services/screening-and-profiling-services/selectscreen-profiling-service/selectscreen-kinase-profiling-service.html."}, "CDK13/cyclin K": {"target": "CDK13/cyclin K (Homo sapiens, UniProt Q14004)", "sequence (Q14004 whole entry)": "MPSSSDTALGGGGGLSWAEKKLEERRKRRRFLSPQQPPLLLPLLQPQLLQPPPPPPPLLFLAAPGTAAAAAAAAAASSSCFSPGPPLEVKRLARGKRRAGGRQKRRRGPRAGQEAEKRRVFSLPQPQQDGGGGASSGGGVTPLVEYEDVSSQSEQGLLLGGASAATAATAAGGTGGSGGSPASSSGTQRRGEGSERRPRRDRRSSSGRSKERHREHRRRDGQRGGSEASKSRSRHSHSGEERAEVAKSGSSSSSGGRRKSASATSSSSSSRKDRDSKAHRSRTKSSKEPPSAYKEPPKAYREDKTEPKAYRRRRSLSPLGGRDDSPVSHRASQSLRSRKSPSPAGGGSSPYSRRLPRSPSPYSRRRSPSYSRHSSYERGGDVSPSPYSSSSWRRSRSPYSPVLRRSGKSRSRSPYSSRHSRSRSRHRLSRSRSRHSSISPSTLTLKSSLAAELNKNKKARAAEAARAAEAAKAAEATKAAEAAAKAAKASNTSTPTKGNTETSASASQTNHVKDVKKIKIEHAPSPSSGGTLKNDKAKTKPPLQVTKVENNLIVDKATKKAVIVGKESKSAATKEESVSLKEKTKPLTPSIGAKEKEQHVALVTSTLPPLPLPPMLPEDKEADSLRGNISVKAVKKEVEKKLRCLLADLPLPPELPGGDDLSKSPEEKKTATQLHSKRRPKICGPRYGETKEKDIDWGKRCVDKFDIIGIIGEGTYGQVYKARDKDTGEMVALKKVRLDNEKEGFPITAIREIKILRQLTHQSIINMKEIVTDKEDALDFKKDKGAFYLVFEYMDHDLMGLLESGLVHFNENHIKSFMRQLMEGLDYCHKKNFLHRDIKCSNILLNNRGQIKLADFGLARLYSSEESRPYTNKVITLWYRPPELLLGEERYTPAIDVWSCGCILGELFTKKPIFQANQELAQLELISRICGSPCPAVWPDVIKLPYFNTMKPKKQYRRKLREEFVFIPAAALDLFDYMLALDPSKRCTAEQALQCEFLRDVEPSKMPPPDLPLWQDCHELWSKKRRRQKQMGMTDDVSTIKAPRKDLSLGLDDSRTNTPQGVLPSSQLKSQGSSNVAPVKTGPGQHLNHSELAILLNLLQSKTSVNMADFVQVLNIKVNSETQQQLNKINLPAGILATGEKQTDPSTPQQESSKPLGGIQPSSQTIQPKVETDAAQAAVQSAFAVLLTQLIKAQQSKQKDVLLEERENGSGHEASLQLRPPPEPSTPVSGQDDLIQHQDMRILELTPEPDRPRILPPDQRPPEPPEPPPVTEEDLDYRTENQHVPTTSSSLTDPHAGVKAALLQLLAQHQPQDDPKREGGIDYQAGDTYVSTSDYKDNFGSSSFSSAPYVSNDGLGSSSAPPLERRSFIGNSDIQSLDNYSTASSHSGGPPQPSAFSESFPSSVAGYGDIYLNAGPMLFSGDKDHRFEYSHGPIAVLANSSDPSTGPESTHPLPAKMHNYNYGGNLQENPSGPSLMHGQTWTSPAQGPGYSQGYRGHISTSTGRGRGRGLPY", "sequence (O75909 whole entry partner)": "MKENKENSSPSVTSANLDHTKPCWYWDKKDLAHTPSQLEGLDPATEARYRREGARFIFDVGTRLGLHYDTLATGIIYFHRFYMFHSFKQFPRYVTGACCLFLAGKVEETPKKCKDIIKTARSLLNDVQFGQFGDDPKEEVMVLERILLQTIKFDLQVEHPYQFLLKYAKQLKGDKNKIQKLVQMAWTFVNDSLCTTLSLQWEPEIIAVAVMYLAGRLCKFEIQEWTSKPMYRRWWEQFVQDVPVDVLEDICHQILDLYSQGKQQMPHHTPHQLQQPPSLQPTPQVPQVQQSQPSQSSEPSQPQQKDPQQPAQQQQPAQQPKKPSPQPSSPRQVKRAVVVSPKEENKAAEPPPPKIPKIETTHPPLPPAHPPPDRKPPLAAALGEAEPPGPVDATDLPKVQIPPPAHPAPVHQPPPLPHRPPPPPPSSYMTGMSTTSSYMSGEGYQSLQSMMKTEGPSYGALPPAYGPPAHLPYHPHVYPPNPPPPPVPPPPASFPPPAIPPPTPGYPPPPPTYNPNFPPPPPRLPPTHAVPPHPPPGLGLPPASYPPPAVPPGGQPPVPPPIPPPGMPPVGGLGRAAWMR", "assay": "CDK panel kinase inhibition", "assay_type": "biochemical", "conditions": "read-out: Percentage of inhibition (%)", "text": "as §1"}, "CDK14 (PFTK1)/cyclin Y": {"target": "CDK14 (PFTK1)/cyclin Y (Homo sapiens, UniProt O94921)", "sequence (O94921 whole entry)": "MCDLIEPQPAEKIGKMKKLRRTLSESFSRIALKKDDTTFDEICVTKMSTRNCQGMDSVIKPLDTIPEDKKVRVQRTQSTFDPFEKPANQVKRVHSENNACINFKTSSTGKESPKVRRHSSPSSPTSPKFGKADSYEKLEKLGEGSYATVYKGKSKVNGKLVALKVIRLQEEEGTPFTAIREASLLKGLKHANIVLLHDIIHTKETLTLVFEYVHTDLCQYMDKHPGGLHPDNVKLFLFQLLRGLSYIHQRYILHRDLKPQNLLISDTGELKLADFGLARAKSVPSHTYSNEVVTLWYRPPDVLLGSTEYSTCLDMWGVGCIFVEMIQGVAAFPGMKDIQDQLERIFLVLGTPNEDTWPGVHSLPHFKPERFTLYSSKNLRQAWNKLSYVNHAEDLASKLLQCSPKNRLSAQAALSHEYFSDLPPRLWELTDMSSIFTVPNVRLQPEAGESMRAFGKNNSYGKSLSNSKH", "sequence (Q8ND76 whole entry partner)": "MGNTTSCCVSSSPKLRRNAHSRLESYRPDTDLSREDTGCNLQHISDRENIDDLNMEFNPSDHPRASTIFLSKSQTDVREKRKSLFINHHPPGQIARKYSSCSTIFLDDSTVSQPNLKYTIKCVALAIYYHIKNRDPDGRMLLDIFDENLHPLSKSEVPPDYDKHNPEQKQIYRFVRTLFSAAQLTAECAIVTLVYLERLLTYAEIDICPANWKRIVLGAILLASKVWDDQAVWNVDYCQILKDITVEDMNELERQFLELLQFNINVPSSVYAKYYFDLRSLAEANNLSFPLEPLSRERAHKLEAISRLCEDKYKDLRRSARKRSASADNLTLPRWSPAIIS", "assay": "CDK panel kinase inhibition", "assay_type": "biochemical", "conditions": "read-out: Percentage of inhibition (%)", "text": "as §1"}, "CDK16 (PCTK1)/cyclin Y": {"target": "CDK16 (PCTK1)/cyclin Y (Homo sapiens, UniProt Q00536)", "sequence (Q00536 whole entry)": "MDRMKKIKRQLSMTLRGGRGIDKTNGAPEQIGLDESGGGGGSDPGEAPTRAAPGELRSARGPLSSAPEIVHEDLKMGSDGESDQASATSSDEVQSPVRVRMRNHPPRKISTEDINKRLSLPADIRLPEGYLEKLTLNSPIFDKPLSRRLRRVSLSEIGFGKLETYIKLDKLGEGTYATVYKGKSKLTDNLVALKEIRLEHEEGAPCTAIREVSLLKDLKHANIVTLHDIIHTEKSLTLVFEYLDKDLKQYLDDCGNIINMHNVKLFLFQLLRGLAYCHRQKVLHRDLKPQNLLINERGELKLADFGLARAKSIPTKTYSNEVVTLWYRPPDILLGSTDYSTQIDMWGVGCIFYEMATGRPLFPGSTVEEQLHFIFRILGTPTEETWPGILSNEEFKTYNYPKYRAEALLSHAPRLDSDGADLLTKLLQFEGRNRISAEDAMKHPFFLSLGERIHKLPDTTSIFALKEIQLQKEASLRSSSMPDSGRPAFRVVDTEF", "sequence (Q8ND76 whole entry partner)": "as the sequence (Q8ND76 whole entry partner) above", "assay": "CDK panel kinase inhibition", "assay_type": "biochemical", "conditions": "read-out: Percentage of inhibition (%)", "text": "as §1"}, "CDK17/cyclin Y": {"target": "CDK17/cyclin Y (Homo sapiens, UniProt Q00537)", "assay": "CDK panel kinase inhibition", "assay_type": "biochemical", "conditions": "read-out: Percentage of inhibition (%)", "text": "as §1"}, "CDK18/cyclin Y": {"target": "CDK18/cyclin Y (Homo sapiens, UniProt Q07002)", "assay": "CDK panel kinase inhibition", "assay_type": "biochemical", "conditions": "read-out: Percentage of inhibition (%)", "text": "as §1"}, "CDK2/cyclin A": {"target": "CDK2/cyclin A (Homo sapiens, UniProt P24941)", "assay": "CDK panel kinase inhibition", "assay_type": "biochemical", "conditions": "read-out: Percentage of inhibition (%)", "text": "as §1"}, "CDK2/cyclin E1": {"target": "CDK2/cyclin E1 (Homo sapiens, UniProt P24941)", "assay": "CDK panel kinase inhibition", "assay_type": "biochemical", "conditions": "read-out: Percentage of inhibition (%)", "text": "as §1"}, "CDK3/cyclin E1": {"target": "CDK3/cyclin E1 (Homo sapiens, UniProt Q00526)", "assay": "CDK panel kinase inhibition", "assay_type": "biochemical", "conditions": "read-out: Percentage of inhibition (%)", "text": "as §1"}, "CDK4/cyclin D1": {"target": "CDK4/cyclin D1 (Homo sapiens, UniProt P11802)", "sequence (P11802 whole entry)": "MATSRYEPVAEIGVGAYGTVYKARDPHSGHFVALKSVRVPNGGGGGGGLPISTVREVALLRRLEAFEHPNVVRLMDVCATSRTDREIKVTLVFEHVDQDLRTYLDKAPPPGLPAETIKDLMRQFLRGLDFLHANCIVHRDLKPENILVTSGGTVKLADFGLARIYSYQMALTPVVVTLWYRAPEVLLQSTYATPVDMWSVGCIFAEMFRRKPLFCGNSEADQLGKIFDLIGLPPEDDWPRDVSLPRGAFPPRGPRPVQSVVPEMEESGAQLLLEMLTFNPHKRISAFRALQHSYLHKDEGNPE", "sequence (P24385 whole entry partner)": "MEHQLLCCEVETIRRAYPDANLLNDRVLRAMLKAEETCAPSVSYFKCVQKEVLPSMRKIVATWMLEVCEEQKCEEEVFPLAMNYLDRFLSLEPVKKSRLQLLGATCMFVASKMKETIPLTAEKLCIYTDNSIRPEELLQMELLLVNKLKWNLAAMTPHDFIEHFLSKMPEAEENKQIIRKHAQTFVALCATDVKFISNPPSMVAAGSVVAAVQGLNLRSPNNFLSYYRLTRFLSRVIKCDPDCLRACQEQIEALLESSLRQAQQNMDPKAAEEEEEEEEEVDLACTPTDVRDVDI", "assay": "CDK panel kinase inhibition", "assay_type": "biochemical", "conditions": "read-out: Percentage of inhibition (%)", "text": "as §1"}, "CDK4/cyclin D3": {"target": "CDK4/cyclin D3 (Homo sapiens, UniProt P11802)", "sequence (P11802 whole entry)": "as the sequence (P11802 whole entry) above", "sequence (P30281 whole entry partner)": "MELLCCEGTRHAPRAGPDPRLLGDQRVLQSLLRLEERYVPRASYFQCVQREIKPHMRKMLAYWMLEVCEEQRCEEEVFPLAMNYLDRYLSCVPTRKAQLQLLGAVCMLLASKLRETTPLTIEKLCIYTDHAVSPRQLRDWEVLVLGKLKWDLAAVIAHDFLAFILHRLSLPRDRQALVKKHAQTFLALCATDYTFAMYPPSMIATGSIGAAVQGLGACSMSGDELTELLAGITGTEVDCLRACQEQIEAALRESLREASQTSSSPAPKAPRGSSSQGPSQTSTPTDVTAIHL", "assay": "CDK panel kinase inhibition", "assay_type": "biochemical", "conditions": "read-out: Percentage of inhibition (%)", "text": "as §1"}, "CDK5 (Inactive)": {"target": "CDK5 (Inactive) (Homo sapiens, UniProt Q00535)", "assay": "CDK panel kinase inhibition", "assay_type": "biochemical", "conditions": "read-out: Percentage of inhibition (%)", "text": "as §1"}, "CDK5/p25": {"target": "CDK5/p25 (Homo sapiens, UniProt Q00535)", "assay": "CDK panel kinase inhibition", "assay_type": "biochemical", "conditions": "read-out: Percentage of inhibition (%)", "text": "as §1"}, "CDK5/p35": {"target": "CDK5/p35 (Homo sapiens, UniProt Q00535)", "assay": "CDK panel kinase inhibition", "assay_type": "biochemical", "conditions": "read-out: Percentage of inhibition (%)", "text": "as §1"}, "CDK6/cyclin D1": {"target": "CDK6/cyclin D1 (Homo sapiens, UniProt Q00534)", "assay": "CDK panel kinase inhibition", "assay_type": "biochemical", "conditions": "read-out: Percentage of inhibition (%)", "text": "as §1"}, "CDK7/cyclin H/MNAT1": {"target": "CDK7/cyclin H/MNAT1 (Homo sapiens, UniProt P50613)", "assay": "CDK panel kinase inhibition", "assay_type": "biochemical", "conditions": "read-out: Percentage of inhibition (%)", "text": "as §1"}, "CDK9/cyclin K": {"target": "CDK9/cyclin K (Homo sapiens, UniProt P50750)", "sequence (P50750 whole entry)": "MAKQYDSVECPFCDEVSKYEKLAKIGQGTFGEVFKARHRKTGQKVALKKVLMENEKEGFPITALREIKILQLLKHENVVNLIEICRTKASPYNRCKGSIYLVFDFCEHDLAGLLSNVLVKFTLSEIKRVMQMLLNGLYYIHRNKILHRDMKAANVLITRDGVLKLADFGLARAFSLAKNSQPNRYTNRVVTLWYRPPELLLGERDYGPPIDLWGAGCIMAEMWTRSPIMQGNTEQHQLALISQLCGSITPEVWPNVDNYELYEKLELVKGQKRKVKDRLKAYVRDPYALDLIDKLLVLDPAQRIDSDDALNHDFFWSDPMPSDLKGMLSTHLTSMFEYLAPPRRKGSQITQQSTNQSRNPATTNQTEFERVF", "sequence (O75909 whole entry partner)": "as the sequence (O75909 whole entry partner) above", "assay": "CDK panel kinase inhibition", "assay_type": "biochemical", "conditions": "read-out: Percentage of inhibition (%)", "text": "as §1"}, "CDK9/cyclin T1": {"target": "CDK9/cyclin T1 (Homo sapiens, UniProt P50750)", "assay": "CDK panel kinase inhibition", "assay_type": "biochemical", "conditions": "read-out: Percentage of inhibition (%)", "text": "as §1"}, "Kinetic solubility assay": {"assay": "Kinetic solubility assay", "assay_type": "physicochemical", "protocol": "MK256 was supplied as DMSO stock at 10 mM. 190 μL of buffer solution (PBS, pH 7.4) was added to all wells on a 96-well Millipore Solubility filter plate. 10 μL of MK256 or control compound testosterone was transferred in triplicate to the buffer wells to a final concentration of 500 μM. The filter plate was shaken for 1.5 hours at room temperature. Samples were filtered via a vacuum system into a fresh 96-well plate. Compounds were diluted to 500 μM (highest concentration) in DMSO and further diluted 1:10 for calibration curve (three-point). HPLC/UV analysis was performed on all samples (220 nm, 254 nm, and 280 nm)."}}, "note": "Like-named read-outs stand apart in the source and are kept apart here."}
{"smiles": "Nc1nccc2c(Br)cc3cc(C(=O)O)ccc3c12", "note": "[MK256]", "values": [{"measurement": "inhibition at 0.2 µM", "setting": "CDK1/cyclin B; 200 nM", "result": 34, "unit": "%"}, {"measurement": "inhibition at 10 µM", "setting": "CDK1/cyclin B; 10 μM", "result": 97, "unit": "%"}, {"measurement": "inhibition at 0.2 µM", "setting": "CDK13/cyclin K; 200 nM", "result": 27, "unit": "%"}, {"measurement": "inhibition at 10 µM", "setting": "CDK13/cyclin K; 10 μM", "result": 95, "unit": "%"}, {"measurement": "inhibition at 0.2 µM", "setting": "CDK14 (PFTK1)/cyclin Y; 200 nM", "result": 23, "unit": "%"}, {"measurement": "inhibition at 10 µM", "setting": "CDK14 (PFTK1)/cyclin Y; 10 μM", "result": 97, "unit": "%"}, {"measurement": "inhibition at 0.2 µM", "setting": "CDK16 (PCTK1)/cyclin Y; 200 nM", "result": 1, "unit": "%"}, {"measurement": "inhibition at 10 µM", "setting": "CDK16 (PCTK1)/cyclin Y; 10 μM", "result": 67, "unit": "%"}, {"measurement": "inhibition at 0.2 µM", "setting": "CDK17/cyclin Y; 200 nM", "result": 25, "unit": "%"}, {"measurement": "inhibition at 10 µM", "setting": "CDK17/cyclin Y; 10 μM", "result": 94, "unit": "%"}, {"measurement": "inhibition at 0.2 µM", "setting": "CDK18/cyclin Y; 200 nM", "result": 37, "unit": "%"}, {"measurement": "inhibition at 10 µM", "setting": "CDK18/cyclin Y; 10 μM", "result": 98, "unit": "%"}, {"measurement": "inhibition at 0.2 µM", "setting": "CDK2/cyclin A; 200 nM", "result": 7, "unit": "%"}, {"measurement": "inhibition at 10 µM", "setting": "CDK2/cyclin A; 10 μM", "result": 85, "unit": "%"}, {"measurement": "inhibition at 0.2 µM", "setting": "CDK2/cyclin E1; 200 nM", "result": 5, "unit": "%"}, {"measurement": "inhibition at 10 µM", "setting": "CDK2/cyclin E1; 10 μM", "result": 70, "unit": "%"}, {"measurement": "inhibition at 0.2 µM", "setting": "CDK3/cyclin E1; 200 nM", "result": 4, "unit": "%"}, {"measurement": "inhibition at 10 µM", "setting": "CDK3/cyclin E1; 10 μM", "result": 82, "unit": "%"}, {"measurement": "inhibition at 0.2 µM", "setting": "CDK4/cyclin D1; 200 nM", "result": 2, "unit": "%"}, {"measurement": "inhibition at 10 µM", "setting": "CDK4/cyclin D1; 10 μM", "result": 23, "unit": "%"}, {"measurement": "inhibition at 0.2 µM", "setting": "CDK4/cyclin D3; 200 nM", "result": -3, "unit": "%"}, {"measurement": "inhibition at 10 µM", "setting": "CDK4/cyclin D3; 10 μM", "result": 23, "unit": "%"}, {"measurement": "inhibition at 0.2 µM", "setting": "CDK5 (Inactive); 200 nM", "result": 7, "unit": "%"}, {"measurement": "inhibition at 10 µM", "setting": "CDK5 (Inactive); 10 μM", "result": 70, "unit": "%"}, {"measurement": "inhibition at 0.2 µM", "setting": "CDK5/p25; 200 nM", "result": 2, "unit": "%"}, {"measurement": "inhibition at 10 µM", "setting": "CDK5/p25; 10 μM", "result": 89, "unit": "%"}, {"measurement": "inhibition at 0.2 µM", "setting": "CDK5/p35; 200 nM", "result": 7, "unit": "%"}, {"measurement": "inhibition at 10 µM", "setting": "CDK5/p35; 10 μM", "result": 90, "unit": "%"}, {"measurement": "inhibition at 0.2 µM", "setting": "CDK6/cyclin D1; 200 nM", "result": -12, "unit": "%"}, {"measurement": "inhibition at 10 µM", "setting": "CDK6/cyclin D1; 10 μM", "result": 23, "unit": "%"}, {"measurement": "inhibition at 0.2 µM", "setting": "CDK7/cyclin H/MNAT1; 200 nM", "result": 9, "unit": "%"}, {"measurement": "inhibition at 10 µM", "setting": "CDK7/cyclin H/MNAT1; 10 μM", "result": 54, "unit": "%"}, {"measurement": "inhibition at 0.2 µM", "setting": "CDK9/cyclin K; 200 nM", "result": 76, "unit": "%"}, {"measurement": "inhibition at 10 µM", "setting": "CDK9/cyclin K; 10 μM", "result": 101, "unit": "%"}, {"measurement": "inhibition at 0.2 µM", "setting": "CDK9/cyclin T1; 200 nM", "result": 82, "unit": "%"}, {"measurement": "inhibition at 10 µM", "setting": "CDK9/cyclin T1; 10 μM", "result": 98, "unit": "%"}, {"measurement": "solubility kinetic at 1.5 h", "setting": "Kinetic solubility assay; PBS buffer, aqueous buffer, kinetic from dmso stock, pH 7.4, read-out: KSOL (μM) PBS (PH 7.4)", "result": 566, "unit": "µM"}, {"measurement": "solubility kinetic at 1.5 h", "setting": "Kinetic solubility assay; PBS, pH 7.4, read-out: KSOL (μM) PBS (PH 7.4)", "result": 566, "unit": "µM"}]}
